# Active and inactive are the calls of the source. The rule behind the calls is not given here.
# Experiments:
# Format in all cases: functional, organism-based
# Ceratobasidium cereale [1] = experiment: Antifungal activity against Ceratobasidium cereale two generation induced iprodione-resistant wheat field isolate HD10R assessed as mycelial growth inhibition in potato dextrose agar media at 25 degC measured after 3 days; details: 72 h
# Ceratobasidium cereale [2] = experiment: Antifungal activity against Ceratobasidium cereale iprodione-sensitive wheat field isolate HN49 assessed as mycelial growth inhibition in potato dextrose agar media at 25 degC measured after 3 days; details: isolate HN49, 72 h
# Ceratobasidium cereale [3] = experiment: Antifungal activity against Ceratobasidium cereale iprodione-sensitive wheat field isolate HQ3 assessed as mycelial growth inhibition in potato dextrose agar media at 25 degC measured after 3 days; details: isolate HQ3, 72 h
# Ceratobasidium cereale [4] = experiment: Antifungal activity against Ceratobasidium cereale two generation induced iprodione-resistant wheat field isolate HQ12R assessed as mycelial growth inhibition in potato dextrose agar media at 25 degC measured after 3 days; details: 72 h
# Ceratobasidium cereale [5] = experiment: Antifungal activity against Ceratobasidium cereale iprodione-sensitive wheat field isolate HQ12 assessed as mycelial growth inhibition in potato dextrose agar media at 25 degC measured after 3 days; details: isolate HQ12, 72 h
# Ceratobasidium cereale [6] = experiment: Antifungal activity against Ceratobasidium cereale two generation induced iprodione-resistant wheat field isolate HQ31R assessed as mycelial growth inhibition in potato dextrose agar media at 25 degC measured after 3 days; details: 72 h
# Ceratobasidium cereale [7] = experiment: Antifungal activity against Ceratobasidium cereale two generation induced iprodione-resistant wheat field isolate HN100R assessed as mycelial growth inhibition in potato dextrose agar media at 25 degC measured after 3 days; details: 72 h
# Ceratobasidium cereale [8] = experiment: Antifungal activity against Ceratobasidium cereale wheat field isolate assessed as mycelial growth inhibition at 25 degC measured after 3 days; details: 72 h
# Ceratobasidium cereale [9] = experiment: Antifungal activity against Ceratobasidium cereale iprodione-sensitive wheat field isolate HN100 assessed as mycelial growth inhibition in potato dextrose agar media at 25 degC measured after 3 days; details: isolate HN100, 72 h
# Ceratobasidium cereale [10] = experiment: Antifungal activity against Ceratobasidium cereale two generation induced iprodione-resistant wheat field isolate HN49R assessed as mycelial growth inhibition in potato dextrose agar media at 25 degC measured after 3 days; details: 72 h
# Ceratobasidium cereale [11] = experiment: Antifungal activity against Ceratobasidium cereale two generation induced iprodione-resistant wheat field isolate HL64R assessed as mycelial growth inhibition in potato dextrose agar media at 25 degC measured after 3 days; details: 72 h
# Ceratobasidium cereale [12] = experiment: Antifungal activity against Ceratobasidium cereale iprodione-sensitive wheat field isolate HD10 assessed as mycelial growth inhibition in potato dextrose agar media at 25 degC measured after 3 days; details: isolate HD10, 72 h
# Ceratobasidium cereale [13] = experiment: Antifungal activity against Ceratobasidium cereale two generation induced iprodione-resistant wheat field isolate HQ3R assessed as mycelial growth inhibition in potato dextrose agar media at 25 degC measured after 3 days; details: 72 h
# Ceratobasidium cereale [14] = experiment: Antifungal activity against Ceratobasidium cereale iprodione-sensitive wheat field isolate HQ31 assessed as mycelial growth inhibition in potato dextrose agar media at 25 degC measured after 3 days; details: isolate HQ31, 72 h
# Ceratobasidium cereale [15] = experiment: Antifungal activity against Ceratobasidium cereale iprodione-sensitive wheat field isolate HL64 assessed as mycelial growth inhibition in potato dextrose agar media at 25 degC measured after 3 days; details: isolate HL64, 72 h
# Ceratobasidium cereale [16] = experiment: Antifungal activity against Ceratobasidium cereale wheat field isolate assessed as mycelial growth inhibition at 10 ug/mL in potato dextrose agar media 25 degC measured after 5 days
Structure (SMILES),EC50 (Ceratobasidium cereale [1]) [mg/L],EC50 (Ceratobasidium cereale [2]) [mg/L],EC50 (Ceratobasidium cereale [3]) [mg/L],EC50 (Ceratobasidium cereale [4]) [mg/L],EC50 (Ceratobasidium cereale [5]) [mg/L],EC50 (Ceratobasidium cereale [6]) [mg/L],EC50 (Ceratobasidium cereale [7]) [mg/L],EC50 (Ceratobasidium cereale [8]) [mg/L],EC50 (Ceratobasidium cereale [9]) [mg/L],EC50 (Ceratobasidium cereale [10]) [mg/L],EC50 (Ceratobasidium cereale [11]) [mg/L],EC50 (Ceratobasidium cereale [12]) [mg/L],EC50 (Ceratobasidium cereale [13]) [mg/L],EC50 (Ceratobasidium cereale [14]) [mg/L],EC50 (Ceratobasidium cereale [15]) [mg/L],Activity (Ceratobasidium cereale [16])
CC1COC(Cn2cncn2)(c2ccc(Oc3ccc(Cl)cc3)cc2Cl)O1 (stereo unspecified) [DIFENOCONAZOLE],0.07,0.07,0.04,0.092,0.082,0.06,0.01,0.062,0.095,0.074,0.057,0.066,0.034,0.037,0.032,
N#Cc1c[nH]cc1-c1cccc2c1OC(F)(F)O2 [FLUDIOXONIL],> 100,0.026,0.015,> 100,0.032,> 100,> 100,0.033,0.024,> 100,> 100,0.05,> 100,0.026,0.022,
CC(C)NC(=O)N1CC(=O)N(c2cc(Cl)cc(Cl)c2)C1=O [IPRODIONE],> 100,0.481,0.357,> 100,0.725,> 100,> 100,0.419,0.249,> 100,> 100,0.46,> 100,0.35,0.372,Active
